One assay concerns NSP14 ExoN. The note with it: cited from earlier work.
The target in a further assay is HNMT (Homo sapiens, UniProt P50135). As to the kind of experiment: HNMT specificity screen. It counts as biochemical.
Another assay has as its target NSP10–14 ExoN (Severe acute respiratory syndrome coronavirus 2, UniProt P0DTD1). It counts as biochemical, SARS-CoV-2.
A further assay deals with RNase H (Escherichia coli, UniProt P0A7Y4).
RNase H, sequence (P0A7Y4 whole entry): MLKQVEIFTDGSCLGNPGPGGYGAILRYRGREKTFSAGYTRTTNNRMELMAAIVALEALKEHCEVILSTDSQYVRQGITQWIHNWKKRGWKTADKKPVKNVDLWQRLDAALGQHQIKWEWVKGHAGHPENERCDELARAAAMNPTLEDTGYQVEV

HNMT, sequence (P50135 whole entry): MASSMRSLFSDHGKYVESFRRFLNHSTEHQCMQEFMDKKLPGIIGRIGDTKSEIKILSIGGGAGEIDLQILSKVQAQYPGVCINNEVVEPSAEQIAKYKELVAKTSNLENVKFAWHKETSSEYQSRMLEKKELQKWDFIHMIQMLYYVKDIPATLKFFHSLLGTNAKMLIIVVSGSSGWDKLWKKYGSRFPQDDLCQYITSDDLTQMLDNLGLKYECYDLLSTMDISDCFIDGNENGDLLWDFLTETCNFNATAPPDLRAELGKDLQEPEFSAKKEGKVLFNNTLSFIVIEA

`O=C1C=C2C(=CCOC2O)O1` (stereo not shown) [Patulin]: the “inhibition of NSP14 ExoN activity, affinity” value in the assay with NSP14 ExoN is listed as “micromolar affinity”.

In the case of `CC(=O)N1CCN(c2ccc(C(=O)N3CCN(Cc4ccccc4)CC3)nn2)C(=O)C1` [NCGC00537446], at HNMT, the “activity against HNMT (off-target)” value is on record as “some activity”. Further, at NSP10–14 ExoN, the “effect on VMAX, ExoN RNA substrate” value is reported as “more clearly influenced” and the “mechanism of inhibition with respect to ExoN RNA substrate” value is “noncompetitive”. Also, at NSP10–14 ExoN (concentrations below 2 μM of compound), the “change in KM for ExoN RNA substrate” value is given as “no significant change”. For the same compound, at RNase H, the “activity against RNase H (off-target)” value is “some activity”; the “potency difference between NSP14 ExoN and RNase H” value is listed as “greater than 10 fold”.

Values taken from article PMC12965331 (Biochemistry, 2025).
